Publication PMC6934184, “Selective DNA-PKcs inhibition extends the therapeutic index of localized radiotherapy and chemotherapy” (The Journal of Clinical Investigation, 2019)

Target: T1, IGF1R (Homo sapiens, UniProt P08069)
T1 construct: purchased Thermo Fisher Scientific (Life Technologies) SelectScreen
Assay: SelectScreen Z'LYTE
Assay type: biochemical
In short: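 SelectScreen broad panel; activity (Z'LYTE, Adapta) plus binding formats. ATP: Km app for CSF1R Z'LYTE; 10 for CAMK1 Adapta. Readout = % per kinase.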

T1 sequence (P08069 31-1367): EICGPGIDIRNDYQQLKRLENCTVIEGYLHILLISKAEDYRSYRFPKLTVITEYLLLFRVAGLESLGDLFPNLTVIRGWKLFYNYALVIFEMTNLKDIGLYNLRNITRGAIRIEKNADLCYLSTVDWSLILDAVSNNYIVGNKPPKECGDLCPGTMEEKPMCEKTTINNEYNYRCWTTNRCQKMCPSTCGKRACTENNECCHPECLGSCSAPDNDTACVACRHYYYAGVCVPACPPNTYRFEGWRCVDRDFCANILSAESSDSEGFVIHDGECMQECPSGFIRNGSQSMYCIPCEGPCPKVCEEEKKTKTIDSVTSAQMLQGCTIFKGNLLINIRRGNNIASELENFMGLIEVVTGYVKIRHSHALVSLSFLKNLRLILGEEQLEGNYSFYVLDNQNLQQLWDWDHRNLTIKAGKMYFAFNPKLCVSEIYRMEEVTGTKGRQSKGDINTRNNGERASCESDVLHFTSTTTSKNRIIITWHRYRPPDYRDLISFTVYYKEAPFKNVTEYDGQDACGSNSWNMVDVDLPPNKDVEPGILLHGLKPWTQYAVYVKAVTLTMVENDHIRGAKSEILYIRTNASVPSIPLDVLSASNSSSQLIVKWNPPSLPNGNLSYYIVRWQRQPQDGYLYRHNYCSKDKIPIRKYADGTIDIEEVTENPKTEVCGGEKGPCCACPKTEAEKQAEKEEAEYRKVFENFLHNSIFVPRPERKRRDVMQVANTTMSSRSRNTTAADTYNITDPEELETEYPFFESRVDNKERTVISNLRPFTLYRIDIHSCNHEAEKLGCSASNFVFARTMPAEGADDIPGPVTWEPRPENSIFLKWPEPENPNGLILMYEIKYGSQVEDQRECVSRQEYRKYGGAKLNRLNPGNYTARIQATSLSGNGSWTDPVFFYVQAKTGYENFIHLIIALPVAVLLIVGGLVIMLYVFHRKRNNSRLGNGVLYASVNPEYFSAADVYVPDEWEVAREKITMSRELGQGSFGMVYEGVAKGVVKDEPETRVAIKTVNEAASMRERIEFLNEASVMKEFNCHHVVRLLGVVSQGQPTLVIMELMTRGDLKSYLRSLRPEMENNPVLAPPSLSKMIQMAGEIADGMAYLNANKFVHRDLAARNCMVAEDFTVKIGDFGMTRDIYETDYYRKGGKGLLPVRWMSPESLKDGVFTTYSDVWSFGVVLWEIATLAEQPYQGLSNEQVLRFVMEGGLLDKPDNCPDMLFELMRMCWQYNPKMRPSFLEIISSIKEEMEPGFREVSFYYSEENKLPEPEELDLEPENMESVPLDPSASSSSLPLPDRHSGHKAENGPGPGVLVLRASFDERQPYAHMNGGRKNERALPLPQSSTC

CN(C(=O)CN1CCOCC1)c1ccc2sc3c(-c4cccc5c(=O)cc(N6CC7CCC(C6)O7)oc45)cccc3c2c1 [NU5455]
inhibition at 1 µM: 9.7%
